Test results: ChEMBL document CHEMBL1201862, “PubChem BioAssay data set” (2004)
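A five-concentration, 48-hour dose response in 96-well plates underlies each endpoint, interpolated linearly between surrounding concentrations. GI50 marks 50% less growth.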 The source made the active and inactive calls. Cut-off read from the data, not from the text of the source: active = GI50 up to about 1.1 µM and inactive = higher.

Experiments:
Assay in all cases: NCI-60 cell line screen, 48 h
A549 = test system: A549
HCT-116 = test system: HCT-116
HCT-15 = test system: HCT-15
HOP-92 = test system: HOP-92
NCI-H226 = test system: NCI-H226
NCI-H460 = test system: NCI-H460
OVCAR-4 = test system: OVCAR-4
OVCAR-5 = test system: OVCAR-5
SF-268 = test system: SF-268
SF-295 = test system: SF-295
SF-539 = test system: SF-539
SK-MEL-28 = test system: SK-MEL-28
SN12C = test system: SN12C
SNB-75 = test system: SNB-75
U-251 = test system: U-251
UACC-257 = test system: UACC-257
K562 = test system: K562
786-0 = test system: 786-0

Row | SMILES | GI50 (A549) | GI50 (HCT-116) | GI50 (HCT-15) [µM] | GI50 (HOP-92) | GI50 (NCI-H226) | GI50 (NCI-H460) | GI50 (OVCAR-4) | GI50 (OVCAR-5) | GI50 (SF-268) | GI50 (SF-295) | GI50 (SF-539) | GI50 (SK-MEL-28) | GI50 (SN12C) | GI50 (SNB-75) | GI50 (U-251) | GI50 (UACC-257) | GI50 (K562) | GI50 (786-0)
1 | CC(=O)OC1/C=C(\C)C(OC(C)=O)C/C=C(/C)CCC2C(/C=C/C1=O)C2(C)C (configuration not stated) | > 100 µM (inactive) | > 100 µM (inactive) | > 100 | 42.2 µM (inactive) | > 100 µM (inactive) | > 100 µM (inactive) | > 100 µM (inactive) | > 100 µM (inactive) | > 100 µM (inactive) | 91 µM (inactive) | > 100 µM (inactive) | > 100 µM (inactive) | > 100 µM (inactive) | 31.2 µM (inactive) | > 100 µM (inactive) | > 100 µM (inactive) | – | –
2 | S=P1(N2CCCCC2)Oc2ccc3ccccc3c2-c2c(ccc3ccccc23)O1 | > 89.5 µM (inactive) | > 82.2 µM (inactive) | 63.7 | 92.9 µM (inactive) | > 54.2 µM (inactive) | 33.6 µM (inactive) | 27.5 µM (inactive) | > 100 µM (inactive) | > 82.2 µM (inactive) | 53.7 µM (inactive) | 71.1 µM (inactive) | > 100 µM (inactive) | > 100 µM (inactive) | 31.8 µM (inactive) | > 65.2 µM (inactive) | > 100 µM (inactive) | 85.7 µM (inactive) | –
3 | O=C1CCC2COc3ccc(O)c1c32 (configuration not stated) | > 100 µM (inactive) | > 100 µM (inactive) | > 100 | 79.3 µM (inactive) | – | > 100 µM (inactive) | > 100 µM (inactive) | – | – | > 100 µM (inactive) | > 100 µM (inactive) | > 100 µM (inactive) | > 100 µM (inactive) | 77.6 µM (inactive) | > 100 µM (inactive) | > 100 µM (inactive) | > 100 µM (inactive) | –
4 | C=C1Oc2nc3ccccc3c(=O)n2C1(C)C | > 100 µM (inactive) | > 100 µM (inactive) | > 100 | > 100 µM (inactive) | > 100 µM (inactive) | > 100 µM (inactive) | > 100 µM (inactive) | > 100 µM (inactive) | > 100 µM (inactive) | > 10 µM (inactive) | > 100 µM (inactive) | > 100 µM (inactive) | > 100 µM (inactive) | – | > 100 µM (inactive) | > 100 µM (inactive) | > 100 µM (inactive) | > 100 µM (inactive)
5 | O=C1N(C2CCCCC2)CC12CCCCC2 | > 100 µM (inactive) | > 100 µM (inactive) | > 100 | > 100 µM (inactive) | > 100 µM (inactive) | > 100 µM (inactive) | > 100 µM (inactive) | – | > 100 µM (inactive) | – | > 100 µM (inactive) | > 100 µM (inactive) | > 100 µM (inactive) | > 100 µM (inactive) | > 100 µM (inactive) | – | > 100 µM (inactive) | > 100 µM (inactive)
6 | COc1ccc2c(c1)OCCC1=C2SCC2(C)CCN=C12 (configuration not stated) | > 100 µM (inactive) | > 100 µM (inactive) | – | – | 35.6 µM (inactive) | > 100 µM (inactive) | > 100 µM (inactive) | – | > 100 µM (inactive) | > 100 µM (inactive) | > 100 µM (inactive) | > 100 µM (inactive) | > 100 µM (inactive) | > 100 µM (inactive) | > 100 µM (inactive) | – | 46.2 µM (inactive) | > 100 µM (inactive)
7 | CCOC(=O)CC[C@H](NC(=O)c1nc[nH]c1/N=N/N(C)C)C(=O)OCC | > 100 µM (inactive) | > 100 µM (inactive) | > 100 | – | > 100 µM (inactive) | > 100 µM (inactive) | > 100 µM (inactive) | – | > 100 µM (inactive) | > 100 µM (inactive) | > 100 µM (inactive) | > 100 µM (inactive) | > 100 µM (inactive) | – | > 100 µM (inactive) | > 100 µM (inactive) | > 100 µM (inactive) | > 100 µM (inactive)
8 | COc1ccc(/N=C\c2cc(OC)c(OC)c(OC)c2)cc1 | > 100 µM (inactive) | > 100 µM (inactive) | 29.2 | > 100 µM (inactive) | – | 85.9 µM (inactive) | > 100 µM (inactive) | > 100 µM (inactive) | > 100 µM (inactive) | – | 87.1 µM (inactive) | > 100 µM (inactive) | > 100 µM (inactive) | > 100 µM (inactive) | > 100 µM (inactive) | > 100 µM (inactive) | 33.7 µM (inactive) | > 100 µM (inactive)
9 | COc1ccc2c(OC)c3ccoc3nc2c1O | > 100 µM (inactive) | > 100 µM (inactive) | 37 | – | – | 85.9 µM (inactive) | > 100 µM (inactive) | > 100 µM (inactive) | > 100 µM (inactive) | > 100 µM (inactive) | > 100 µM (inactive) | > 100 µM (inactive) | > 100 µM (inactive) | 86.9 µM (inactive) | > 100 µM (inactive) | 39.5 µM (inactive) | > 100 µM (inactive) | > 100 µM (inactive)
10 | O=C(O)CNS(=O)(=O)c1ccc(NC(=O)c2ccc(F)cc2)cc1 | > 100 µM (inactive) | – | > 100 | > 100 µM (inactive) | – | > 100 µM (inactive) | > 100 µM (inactive) | > 100 µM (inactive) | > 100 µM (inactive) | > 100 µM (inactive) | > 100 µM (inactive) | > 100 µM (inactive) | > 100 µM (inactive) | > 100 µM (inactive) | > 100 µM (inactive) | > 100 µM (inactive) | > 100 µM (inactive) | > 100 µM (inactive)
11 | C(=C/c1nc2ccccc2o1)/c1ccc2c(c1)OCO2 | 18.7 µM (inactive) | 12.3 µM (inactive) | 8.18 | 13.2 µM (inactive) | 18 µM (inactive) | 21.2 µM (inactive) | 13.1 µM (inactive) | > 36.6 µM (inactive) | 19.8 µM (inactive) | 8.04 µM (inactive) | 16.6 µM (inactive) | 24.9 µM (inactive) | 58.6 µM (inactive) | 21.1 µM (inactive) | 17.5 µM (inactive) | 12.7 µM (inactive) | 5.22 µM (inactive) | –
12 | CC(=O)[C@@]1(c2ccccc2)CC2(CCN(C)CC2)O[C@H]1C | > 100 µM (inactive) | > 100 µM (inactive) | > 100 | > 100 µM (inactive) | > 100 µM (inactive) | > 100 µM (inactive) | > 100 µM (inactive) | > 100 µM (inactive) | > 100 µM (inactive) | > 100 µM (inactive) | > 100 µM (inactive) | > 100 µM (inactive) | > 100 µM (inactive) | > 100 µM (inactive) | > 100 µM (inactive) | > 100 µM (inactive) | > 100 µM (inactive) | > 100 µM (inactive)
13 | COc1ccc(OCC(C)(C)O)cc1 | > 100 µM (inactive) | > 100 µM (inactive) | > 100 | > 100 µM (inactive) | > 100 µM (inactive) | > 100 µM (inactive) | > 62.8 µM (inactive) | > 100 µM (inactive) | > 100 µM (inactive) | > 100 µM (inactive) | > 100 µM (inactive) | > 100 µM (inactive) | > 100 µM (inactive) | > 47 µM (inactive) | > 100 µM (inactive) | > 100 µM (inactive) | > 100 µM (inactive) | –
14 | C=C1COC(/C=C(\C)CC/C=C(\C)CCl)C1 (configuration not stated) | > 100 µM (inactive) | > 100 µM (inactive) | > 100 | 35.1 µM (inactive) | > 100 µM (inactive) | > 100 µM (inactive) | > 100 µM (inactive) | > 100 µM (inactive) | > 100 µM (inactive) | > 100 µM (inactive) | > 100 µM (inactive) | > 100 µM (inactive) | > 100 µM (inactive) | > 100 µM (inactive) | > 100 µM (inactive) | – | > 100 µM (inactive) | > 100 µM (inactive)
15 | Cc1ccc(N2Cc3c(ccc4ccccc34)OP2(=O)Oc2ccc(Cl)c(C)c2)cc1 (configuration not stated) | > 94.6 µM (inactive) | 26.1 µM (inactive) | 13.8 | 50 µM (inactive) | > 100 µM (inactive) | 67.5 µM (inactive) | > 100 µM (inactive) | > 100 µM (inactive) | > 100 µM (inactive) | > 51.2 µM (inactive) | > 100 µM (inactive) | > 100 µM (inactive) | > 100 µM (inactive) | > 100 µM (inactive) | > 100 µM (inactive) | > 100 µM (inactive) | > 100 µM (inactive) | –
16 | C=C1CCC2[C@@H](CCC3[C@]2(C)CCC[C@]3(C)C(=O)OC)C1CCO (some centres not stated) | 14.4 µM (inactive) | 5.98 µM (inactive) | 11.2 | 7.08 µM (inactive) | 14.4 µM (inactive) | 6.49 µM (inactive) | 12.8 µM (inactive) | 14.9 µM (inactive) | 11.3 µM (inactive) | 16.3 µM (inactive) | 13.4 µM (inactive) | 13.9 µM (inactive) | 11.9 µM (inactive) | 7.46 µM (inactive) | 11.1 µM (inactive) | 5.98 µM (inactive) | 6 µM (inactive) | 18.3 µM (inactive)
17 | COc1ccc(C2C3C(=O)C=CC(=O)C3[C@@H]2C)cc1OC (some centres not stated) | > 100 µM (inactive) | 28.4 µM (inactive) | 23.6 | > 100 µM (inactive) | 81.7 µM (inactive) | > 100 µM (inactive) | > 100 µM (inactive) | > 100 µM (inactive) | > 100 µM (inactive) | > 100 µM (inactive) | > 100 µM (inactive) | > 100 µM (inactive) | – | 22.1 µM (inactive) | > 100 µM (inactive) | > 100 µM (inactive) | 62.7 µM (inactive) | 40.7 µM (inactive)
